Values of other authors, collected in patent publication EP0356866A2, “Phosphorus-containing squalene synthetase inhibitors and method” (E.R. SQUIBB & SONS, INC., priority 1988, dated 1990).

Target: T1, avian liver farnesyl diphosphate synthetase (Gallus gallus, UniProt P08836)
T1 construct: host or cells: avian liver
T1 sequence (P08836 1-367): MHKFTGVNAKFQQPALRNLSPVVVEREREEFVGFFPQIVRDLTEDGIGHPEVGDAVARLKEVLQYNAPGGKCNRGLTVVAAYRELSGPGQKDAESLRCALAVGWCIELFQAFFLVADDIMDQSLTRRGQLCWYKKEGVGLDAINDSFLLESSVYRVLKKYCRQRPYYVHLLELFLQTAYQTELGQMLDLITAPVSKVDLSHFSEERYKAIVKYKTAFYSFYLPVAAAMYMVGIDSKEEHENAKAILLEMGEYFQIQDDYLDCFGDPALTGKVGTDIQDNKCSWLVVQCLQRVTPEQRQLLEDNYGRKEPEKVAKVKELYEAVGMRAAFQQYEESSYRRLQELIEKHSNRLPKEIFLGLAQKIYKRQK
Conditions: competitive inhibitors of the 1′-4-condensation between isopentenyl diphosphate and geranyl diphosphate

Compound	Ki
CC(C)=CCCP(=O)(O)CP(=O)(O)O [H]	71 µM
C=C(C)CCCP(=O)(O)CP(=O)(O)O [G]	19 µM
